From patent US10526291B2, “Potent dual BRD4-kinase inhibitors as cancer therapeutics” (H. Lee Moffitt Cancer Center and Research Institute, Inc., priority 2014, dated 2020)

Experiments:
[1] = molecular target: BRD4 (Homo sapiens, UniProt O60885); test: Differential Scanning Fluorimetry (DSF), stability of BRD4 upon ligand binding; settings: for ΔTm at 4 µM: 100 μM protein, 4 μM compound and 2% DMSO; for IC50: estimated
Description: DSF=Differential Scanning Fluorimetry; provides a measure of the increased stability of BRD4 upon ligand binding The DSF experiment was run at 100 μM protein, 4 μM compound and 2% DMSO.

[2] = tested on: HEK293; test: HEK293 cell IC50; type: cell-based; settings: Homo sapiens
[3] = tested on: MM.1S cells; test: MM.1S cell survival, MTT assay; type: cell-based; settings: Homo sapiens, MM1.S, 72 h, 72 hours compound exposure

SMILES	ΔTm at 4 µM [1]	IC50 [1]	IC50 [2]	IC50 [3]
Cc1nc(Nc2ccc(N3CCN(C)CC3)cc2)nc(Nc2cccc(S(=O)(=O)NC(C)(C)CO)c2)c1C	5.5 ± 0.17 °C	320 nM	4300 nM	
COc1cc(Nc2nc(Nc3ccc(N4CCN(C)CC4)cc3)ncc2C)cc(OC)c1Cl	7.6 ± 0.15 °C	63 nM		1100 nM
COc1cc(Nc2nc(Nc3ccc(N4CCN(C)CC4)cc3)ncc2C)cc(OC)c1OC	6.9 ± 0.1 °C	110 nM	970 nM	
CN1CCN(c2ccc(Nc3ncc(Cl)c(Nc4cccc(S(=O)(=O)NC(C)(C)CO)c4)n3)cc2)CC1	6.1 ± 0.15 °C	200 nM	1500 nM	
COc1cc(Nc2nc(Nc3ccc(N4CCN(C)CC4)cc3)nc(C)c2C)cc(OC)c1OC	5.9 ± 0.14 °C	230 nM	1400 nM	5600 nM
CN1CCC(NC(=O)c2ccc(Nc3ncc(F)c(Nc4ccc(Cl)c(NS(=O)(=O)C(C)(C)C)c4)n3)cc2F)CC1	9.91 ± 0.039 °C	40.5 nM		120 nM
COc1cc(Nc2nc(Nc3ccc(N4CCN(C)CC4)cc3)nc3ccccc23)ccc1Cl	4.9 ± 0.13 °C	500 nM	1700 nM	
COc1cc(Nc2nc(Nc3ccc(N4CCN(C)CC4)cc3)ncc2Cl)cc(OC)c1OC	5.2 ± 0.02 °C	400 nM	2000 nM	
Cc1nc(Nc2ccc(N3CCN(C)CC3)cc2)nc(Nc2cccc(S(=O)(=O)NC(C)(C)C)c2)c1C	5.3 ± 0.064 °C	370 nM	120000 nM	
Cc1cnc(Nc2ccc(N3CCN(C)CC3)c(F)c2)nc1Nc1ccc2c(c1)N(S(=O)(=O)C(C)(C)C)CCC2	10.5 ± 0.15 °C	27.7 nM		
Cc1cnc(Nc2ccc(N3CCN(C)CC3)cc2)nc1Nc1ccc(Cl)c(NS(=O)(=O)CC(C)C)c1	7.28 ± 0.091 °C	221 nM		
CC(C)NS(=O)(=O)c1cccc(Nc2nc(Nc3ccc(N4CCN(C)CC4)cc3)nc3ccccc23)c1	5 ± 0.13 °C	480 nM		
CN1CCN(c2ccc(Nc3nc4c(c(Nc5cccc(NS(=O)(=O)C(C)(C)C)c5)n3)COC4)cc2)CC1	6 ± 0.13 °C	220 nM		
Cc1cnc(Nc2cc(F)c(N3CCN(C)CC3)c(F)c2)nc1Nc1ccc(Cl)c(NS(=O)(=O)C(C)(C)C)c1	13.8 ± 0.191 °C	3.29 nM		
CCc1cnc(Nc2ccc(N3CCOCC3)cc2)nc1Nc1cccc(S(=O)(=O)NC(C)(C)C)c1	-0.0084 °C	21800 nM		
Cc1cnc(Nc2ccc(N3CCN(C)CC3)cc2)nc1Nc1cc(NS(=O)(=O)C2CC2)cc(NS(=O)(=O)C2CC2)c1	5.3 ± 0.041 °C	370 nM		
CN1CCN(c2ccc(Nc3ncc(C(F)(F)F)c(Nc4cccc(S(=O)(=O)NC(C)(C)C)c4)n3)cc2)CC1	0.2 ± 0.082 °C	18600 nM		
CN1CCN(c2ccc(Nc3nc4c(c(Nc5ccc(Cl)c(NS(=O)(=O)C6CC6)c5)n3)COC4)cc2)CC1	5.4 ± 0.2 °C	350 nM		
Cc1cnc(Nc2ccc(N3CCN(C)CC3)cc2)nc1Nc1ccc(Cl)c(OC(C)C)c1	6.3 ± 0.1 °C	170 nM		
Cc1ccc(Nc2nc(Nc3ccc(N4CCN(C)CC4)c(F)c3)ncc2C)cc1S(=O)(=O)NC1CCC1	6.8 ± 0.01 °C	120 nM		
CN1CCN(c2ccc(Nc3ncc(Cl)c(Nc4ccc5c(c4)OCO5)n3)cc2)CC1	0.073 ± 0.083 °C	20500 nM		
CCc1cnc(Nc2ccc(N3CCN(C)CC3)cc2)nc1Nc1cccc(S(=O)(=O)NC(C)(C)C)c1	3.2 °C	1850 nM		

SMILES	ΔTm at 4 µM [1]	IC50 [1]	IC50 [2]	IC50 [3]
CCS(=O)(=O)Nc1cc(Nc2nc(Nc3ccc(N4CCN(C)CC4)cc3)ncc2C)ccc1Cl	7.93 ± 0.183 °C	145 nM		
CC(C)NS(=O)(=O)c1cccc(Nc2nc(N3CCN(c4ccc(N)cc4)CC3)ncc2Br)c1	0.16 °C	19200 nM		
CCc1cnc(Nc2ccc(N3CCOCC3)cc2)nc1Nc1cccc(S(=O)(=O)NC(C)C)c1	-0.29 °C	27100 nM		
Cc1cnc(Nc2cc(F)c(N3CCN(C)CC3)c(F)c2)nc1Nc1cccc(NS(=O)(=O)C(C)(C)C)c1	12.8 ± 0.058 °C	6.28 nM		
COc1cc(Nc2nc(Nc3ccc(N4CCN(C)CC4)cc3)ncc2Cl)c(OC)cc1Cl	0.073 ± 0.13 °C	20500 nM		
CCCS(=O)(=O)Nc1cccc(Nc2nc(Nc3ccc(N4CCN(C)CC4)cc3)ncc2C)c1	6.7 ± 0.157 °C	321 nM		
CCCS(=O)(=O)Nc1cc(Nc2nc(Nc3ccc(N4CCN(C)CC4)cc3)ncc2C)ccc1Cl	6.7 ± 0.15 °C	130 nM		
COc1cc(Nc2nc(Nc3ccc(N4CCN(C)CC4)cc3)ncc2Cl)cc(OC)c1Cl	2 ± 0.42 °C	4700 nM		
CC(C)Oc1cccc(Nc2nc(Nc3ccc(N4CCN(C)CC4)cc3)ncc2Cl)c1	4.8 ± 0.12 °C	540 nM		
COc1cc(Nc2ncc(C(F)(F)F)c(Nc3ccc(N4CCN(C)CC4)cc3)n2)ccc1Cl	0.56 ± 0.37 °C	14100 nM		
COc1cc(Nc2cc(C)nc(Nc3ccc(N4CCN(C)CC4)cc3)n2)ccc1Cl	2.6 ± 0.095 °C	2900 nM		
Cc1cnc(Nc2ccc(N3CCN(C)CC3)cc2)nc1Nc1cccc(NS(=O)(=O)CC(C)C)c1	6.58 ± 0.103 °C	347 nM		
Cc1cnc(Nc2ccc(C(=O)NC3CCN(C)CC3)c(F)c2)nc1Nc1ccc2c(c1)N(S(=O)(=O)C(C)(C)C)CC2	12.3 ± 0.116 °C	8.6 nM		
Cc1cnc(Nc2ccc(N3CCN(C)CC3)cc2)nc1Nc1ccc2c(c1)OCCO2	4.4 ± 0.11 °C	740 nM		
COc1cc(C(=O)NC2CCN(C)CC2)ccc1Nc1ncc(C)c(Nc2cc(OC)c(Cl)c(OC)c2)n1	3 ± 0.11 °C	2200 nM		
CC(C)NS(=O)(=O)c1cccc(Nc2nc(Nc3ccc(N4CCNCC4)cc3)ncc2Br)c1	5 °C	460 nM		
CN1CCN(c2ccc(Nc3ncc(C(N)=O)c(Nc4cccc(S(=O)(=O)NC(C)(C)C)c4)n3)cc2)CC1	2.7 ± 0.0089 °C	2700 nM		
CN1CCN(c2ccc(Nc3nc4c(c(Nc5cccc(NS(=O)(=O)C6CC6)c5)n3)COC4)cc2)CC1	1.3 ± 0.12 °C	7900 nM		
Cc1cnc(Nc2ccc(N3CCN(C)CC3)cc2)nc1Nc1cccc(NS(=O)(=O)C2(C)CC2)c1	7.5 ± 0.23 °C	68 nM		
Cc1cnc(Nc2ccc(N3CCN(C)CC3)cc2)nc1Nc1cccc(S(=O)(=O)NC(C)(C)CO)c1	6.5 ± 0.18 °C	150 nM	3600 nM	
Cc1cnc(Nc2ccc(N3CCN(C)CC3)cc2)nc1Nc1ccc(F)c(NS(=O)(=O)C(C)(C)C)c1	9.5 ± 0.07 °C	14 nM		
CC(C)NS(=O)(=O)c1cccc(Nc2nc(Nc3ccc(N4CCN(C)CC4)cc3)ncc2Cl)c1	4.6 ± 0.12 °C	630 nM		

SMILES	ΔTm at 4 µM [1]	IC50 [1]	IC50 [2]	IC50 [3]
CN1CCN(C(=O)Cc2ccc(Nc3ncc(F)c(Nc4ccc(C(=O)NC5CC5)cc4)n3)cc2)CC1	4.2 ± 0.2 °C	850 nM		
COc1cc(Nc2nc(Nc3ccc(C(=O)NC4CCN(C)CC4)cc3)ncc2C)cc(OC)c1Cl	5.9 ± 0.063 °C	2300 nM		
CN1CCN(c2ccc(Nc3ncc(Cl)c(Nc4cccc(NS(=O)(=O)C5CC5)c4)n3)cc2)CC1	6.9 ± 0.15 °C	110 nM	3600 nM	
COc1cc(Nc2nc(Nc3ccc(N4CCNCC4)cc3)ncc2C)ccc1Cl	7.1 ± 0.15 °C	92 nM		
COc1cc(Nc2nc(Nc3ccc(N4CCNCC4)cc3)ncc2Br)ccc1Cl	4.5 ± 0.1 °C	680 nM		
Cc1cnc(Nc2ccc(N3CCN(C)CC3)cc2)nc1Nc1cccc(NC(=O)C(C)(C)C)c1	3.5 ± 0.19 °C	1500 nM		
Cc1cnc(Nc2ccc(N3CCN(C)CC3)c(F)c2)nc1Nc1cccc(NS(=O)(=O)C2(C)CC2)c1	9.1 ± 0.05 °C	20 nM		
CN1CCC(NC(=O)c2ccc(Nc3ncc(Cl)c(Nc4ccc(Cl)c(NS(=O)(=O)C(C)(C)C)c4)n3)cc2F)CC1	12 ± 0.5 °C	10.5 nM		90 nM
COc1ccc(Nc2nc(C)c(C)c(Nc3cccc(S(N)(=O)=O)c3)n2)cc1	0.12 ± 0.13 °C	19800 nM		
CCCc1cnc(Nc2ccc(N3CCN(C)CC3)cc2)nc1Nc1ccc(Cl)c(OC)c1	3.1 ± 0.075 °C	2000 nM		
Cc1cnc(Nc2ccc(C(=O)NC3CCN(C)CC3)c(F)c2)nc1Nc1ccc(Cl)c(NS(=O)(=O)C2(C)CC2)c1	10.9 ± 0.22 °C	21 nM		
CN1CCN(c2ccc(Nc3ncc(F)c(Nc4ccc(Cl)c(NS(=O)(=O)C(C)(C)C)c4)n3)cc2)CC1	7.2 ± 0.17 °C	85 nM		
Cc1cnc(Nc2ccc(N3CCN(C)CC3)cc2)nc1Nc1cccc(S(=O)(=O)NC(C)C)c1	6 ± 0.1 °C	210 nM		
Cc1cnc(Nc2ccc(CC(=O)N3CCN(C)CC3)cc2)nc1Nc1ccc(Cl)c(Cl)c1	4.7 ± 0.14 °C	580 nM		
CN1CCN(c2ccc(Nc3ncc(Cl)c(Nc4ccc5c(c4)OCCO5)n3)cc2)CC1	2.6 ± 0.15 °C	2940 nM		
Cc1cnc(Nc2ccc(N3CCN(C)CC3)cc2)nc1Nc1cccc(NC(=O)C(C)C)c1	4.1 ± 0.12 °C	900 nM		
Cc1cnc(Nc2ccc(N3CCN(C)CC3)cc2)nc1Nc1cccc(NS(=O)(=O)c2ccccc2)c1	4.1 ± 0.07 °C	900 nM		
Cc1cnc(Nc2ccc(C(=O)NC3CCN(C)CC3)cc2)nc1Nc1cccc(NS(=O)(=O)C(C)(C)C)c1	7.6 ± 0.047 °C	62 nM		
Cc1ccc(Nc2nc(Nc3ccc(C(=O)NC4CCN(C)CC4)c(F)c3)ncc2C)cc1S(=O)(=O)NC1CCC1	7.8 ± 0.15 °C	54 nM		
Cc1ccc(Nc2nc(Nc3ccc(C4CCN(C)CC4)cc3)ncc2C)cc1S(=O)(=O)NC1CCC1	7.7 ± 0.17 °C	58 nM		
CN1CCN(c2ccc(Nc3ncc(Cl)c(Nc4cccc(S(=O)(=O)NC(C)(C)C)c4)n3)cc2)CC1	5.7 ± 0.054 °C	270 nM		
CCOc1cccc(Nc2nc(Nc3ccc(N4CCN(C)CC4)cc3)ncc2Cl)c1	4.3 ± 0.12 °C	790 nM		
